Assay [1] concerns WM-164 melanoma cell line. Briefly: Sulforhodamine B (SRB) cytotoxicity assay, WM-164. The class given is cell-based. The following applies: Homo sapiens, WM164, 48 h exposure, diastereomeric mixtures, value ± standard error, read-out: IC50 ± SEM WM-164 (converted). How it is done:
(§1) Cytotoxicity of these newly synthesized compounds was examined in two human melanoma cell lines (SK-MEL-188 and WM-164) and in a fibroblast cell line. Activity on fibroblast cells was used as a control to determine the selectivity of these compounds against melanoma. Standard sulforhodamine B (SRB) assay was used. Cells were exposed to a wide range of concentrations for 48 h in round-bottom 96-well plates. Cells were fixed with 10% trichloroacetic acid and washed five times with water. After cells were air-dried overnight and stained with SRB solution, total proteins were measured at 560 nm with a plate reader. IC50 (i.e., concentration which inhibited cell growth by 50% of DMSO-treated controls) values were obtained by nonlinear regression analysis with GraphPad Prism (GraphPad Software, San Diego, Calif.).
(§2) The ability of thiazolidine derivatives to inhibit the growth of two melanoma cancer cell lines and fibroblast cells is summarized in Table 1. […] At this early stage, all compounds were used as a diastereomeric mixture if they contain chiral centers in order to select the most promising compounds for further development.
For orientation: The SRB assay estimates cell density from bound dye.

Assay [2] concerns fibroblast cell line. In words: Sulforhodamine B (SRB) cytotoxicity assay, fibroblast control. The following applies: 48 h exposure, control for selectivity, value ± standard error, read-out: IC50 ± SEM Fibroblast (converted). The assay is classed as cell-based. How it is done:
as §1, §2

Assay [3] relates to SK-MEL-188 melanoma cell line. Briefly: Sulforhodamine B (SRB) cytotoxicity assay, SK-MEL-188. To be noted: Homo sapiens, 48 h exposure, diastereomeric mixtures, value ± standard error, read-out: IC50 ± SEM SK-MEL-188 (converted). The class given is cell-based. How it is done: as §1, §2
The test system of assay [4] is melanoma cells. In words: SRB cytotoxicity assay, statements not tied to one cell line. The class given is cell-based, human. The following applies: for potency/activity in words: melanoma cells and fibroblast cells; for IC50: Homo sapiens; for selectivity in words: melanoma versus fibroblast cells. On the procedure: as §1, §2

Read-outs that look alike come from different tables or passages of the source. Where only a bound is given, the exact number is not on record here.

Usually IC50 stands for the midpoint of a concentration-inhibition curve.

As to `CCCCCCCCNC(=O)[C@@H]1CSC(c2cc(OC)c(OC)c(OC)c2)N1` (stereo partly drawn) [Compound 301, (4R)-2-(3,4,5-trimethoxyphenyl)-N-octylthiazolidine-4-carboxamide], the IC50 was 19.6 ± 0.9 µM in assay [1], 20.8 ± 10.4 µM in assay [2] and 17.1 ± 0.6 µM in assay [3].

As to `CCCCCCCCCCNC(=O)[C@@H]1CSC(c2cc(OC)c(OC)c(OC)c2)N1` (stereo partly drawn) [Compound 302, (4R)—N-decyl-2-(3,4,5-trimethoxyphenyl)thiazolidine-4-carboxamide], the results for the IC50 in assay [1], in assay [2] and in assay [3] were 2.1 µM, 6.7 µM and 14.5 µM, respectively. Also, the potency/activity in words result in assay [4] is recorded as “low potency”.

Consider `CCCCCCCCCCCCNC(=O)[C@@H]1CSC(c2cc(OC)c(OC)c(OC)c2)N1` (stereo partly drawn) [Compound 303, (4R)—N-dodecyl-2-(3,4,5-trimethoxyphenyl)thiazolidine-4-carboxamide], for which the IC50 is 2.4 µM in assay [1], 2.4 µM in assay [2] and 2.1 µM in assay [3].

In the case of `CCCCCCCCCCCCCCNC(=O)[C@@H]1CSC(c2cc(OC)c(OC)c(OC)c2)N1` (stereo partly drawn) [Compound 304, (4R)-2-(3,4,5-trimethoxyphenyl)-N-tetradecylthiazolidine-4-carboxamide], the figures for the IC50 in assay [1], in assay [2] and in assay [3] were 1.6 µM, 2.6 µM and 2 µM, respectively.

Regarding `CCCCCCCCCCCCCCCCNC(=O)[C@@H]1CSC(c2cc(OC)c(OC)c(OC)c2)N1` (stereo partly drawn) [Compound 305, (4R)—N-hexadecyl-2-(3,4,5-trimethoxyphenyl)thiazolidine-4-carboxamide], the IC50 in assay [1] is 0.7 µM; in assay [2] it was 2.4 µM; in assay [3], 1.8 µM.

As for `CCCCCCCCCCNC(=O)[C@@H]1CSC(c2ccc(OC)c(OC)c2)N1` (stereo partly drawn) [Compound 306, (4R)—N-decyl-2-(3,4-dimethoxyphenyl)thiazolidine-4-carboxamide], the IC50 in assay [1] is 6.1 µM; in assay [2], 6.3 µM; in assay [3], 11.9 µM. Further, the potency/activity in words result in assay [4] is “low potency”.

Turning to `CCCCCCCCCCCCNC(=O)[C@@H]1CSC(c2ccc(OC)c(OC)c2)N1` (stereo partly drawn) [Compound 307, (4R)—N-dodecyl-2-(3,4-dimethoxyphenyl)thiazolidine-4-carboxamide], the IC50 in assay [1] was 1.6 µM; in assay [2], 4.5 µM; in assay [3] it was 2.9 µM.

For `CCCCCCCCCCCCCCNC(=O)[C@@H]1CSC(c2ccc(OC)c(OC)c2)N1` (stereo partly drawn) [Compound 308, (4R)-2-(3,4-dimethoxyphenyl)-N-tetradecylthiazolidine-4-carboxamide], the IC50 is 0.8 µM in assay [1], 2.8 µM in assay [2] and 1.5 µM in assay [3].

In the case of `CCCCCCCCCCCCCCCCNC(=O)[C@@H]1CSC(c2ccc(OC)c(OC)c2)N1` (stereo partly drawn) [Compound 309, (4R)—N-hexadecyl-2-(3,4-dimethoxyphenyl)thiazolidine-4-carboxamide], the results for the IC50 in assay [1], in assay [2] and in assay [3] were 0.5 µM, 2.1 µM and 1.5 µM, respectively.

Take `CCCCCCCCCCNC(=O)[C@@H]1CSC(c2ccc3c(c2)OCO3)N1` (stereo partly drawn) [Compound 310, (4R)-2-(benzo[d][1,3]dioxol-5-yl)-N-decylthiazolidine-4-carboxamide]: the IC50 in assay [1] was 4.5 µM; in assay [2], 8.2 µM; in assay [3] it was 6.6 µM. For the same molecule, the potency/activity in words entry in assay [4] is reported as “low potency”.

In the case of `CCCCCCCCCCCCNC(=O)[C@@H]1CSC(c2ccc3c(c2)OCO3)N1` (stereo partly drawn) [Compound 311, (4R)-2-(benzo[d][1,3]dioxol-5-yl)-N-dodecylthiazolidine-4-carboxamide], the IC50 in assay [1] was 2.5 µM; in assay [2], 5.2 µM; in assay [3] it was 3.5 µM.

Take `CCCCCCCCCCCCCCNC(=O)[C@@H]1CSC(c2ccc3c(c2)OCO3)N1` (stereo partly drawn) [Compound 312, (4R)-2-(benzo[d][1,3]dioxol-5-yl)-N-tetradecylthiazolidine-4-carboxamide]: the IC50 in assay [1] is 1 µM; in assay [2] it was 4.2 µM; in assay [3], 1.6 µM.

Take `CCCCCCCCCCCCCCCCNC(=O)[C@@H]1CSC(c2ccc3c(c2)OCO3)N1` (stereo partly drawn) [Compound 313, (4R)-2-(benzo[d][1,3]dioxol-5-yl)-N-hexadecylthiazolidine-4-carboxamide]: the values for the IC50 in assay [1], in assay [2] and in assay [3] were 1.8 µM, 5.7 µM and 1.6 µM, respectively.

Take `CCCCCCCCCCCCNC(=O)[C@@H]1CSC(c2ccc(NC(C)=O)cc2)N1` (stereo partly drawn) [Compound 314, (4R)-2-(4-acetamidophenyl)-N-dodecylthiazolidine-4-carboxamide]: the IC50 in assay [1] is 1.2 µM; in assay [2], 3.5 µM; in assay [3], 2.4 µM.

On to `CCCCCCCCCCCCCCNC(=O)[C@@H]1CSC(c2ccc(NC(C)=O)cc2)N1` (stereo partly drawn) [Compound 315, (4R)-2-(4-acetamidophenyl)-N-tetradecylthiazolidine-4-carboxamide], for which the results for the IC50 in assay [1], in assay [2] and in assay [3] were 0.6 µM, 3.6 µM and 2.3 µM, respectively.

Turning to `CCCCCCCCCCCCCCCNC(=O)[C@@H]1CSC(c2ccc(NC(C)=O)cc2)N1` (stereo partly drawn) [Compound 316, (4R)-2-(4-acetamidophenyl)-N-pentadecylthiazolidine-4-carboxamide], the IC50 in assay [1] was 1 µM; in assay [2] it was 14.3 µM; in assay [3] it was 1.6 µM.

As to `CCCCCCCCCCCCCCCCNC(=O)[C@@H]1CSC(c2ccc(NC(C)=O)cc2)N1` (stereo partly drawn) [Compound 317, (4R)-2-(4-acetamidophenyl)-N-hexadecylthiazolidine-4-carboxamide], the IC50 in assay [1] was 0.6 µM; in assay [4] (melanoma cells, lowest value stated in text, read-out: IC50 for melanoma cells (as low as)) it was 0.6 µM; in assay [2], 19.1 µM; in assay [3], 2.1 µM.

Take `CCCCCCCCCCCCCCCCCNC(=O)[C@@H]1CSC(c2ccc(NC(C)=O)cc2)N1` (stereo partly drawn) [Compound 318, (4R)-2-(4-acetamidophenyl)-N-heptadecylthiazolidine-4-carboxamide]: the IC50 was 2.4 µM in assay [1], 35.8 µM in assay [2] and 8.5 µM in assay [3].

As to `CCCCCCCCC/C=C/CCCCCCCNC(=O)[C@@H]1CSC(c2ccc(NC(C)=O)cc2)N1` (stereo partly drawn) [Compound 320E, (4R)-2-(4-acetamidophenyl)-N-((E)-octadec-8-enyl)thiazolidine-4-carboxamide], the results for the IC50 in assay [1], in assay [2] and in assay [3] were 1.4 µM, 18 µM and 3.3 µM, respectively. In addition, in assay [4], the potency/activity in words entry was “restored potency dramatically”.

Regarding `CCCCCCCCC/C=C\CCCCCCCNC(=O)[C@@H]1CSC(c2ccc(NC(C)=O)cc2)N1` (stereo partly drawn) [Compound 320Z, (4R)-2-(4-acetamidophenyl)-N-((Z)-octadec-8-enyl)thiazolidine-4-carboxamide], the figures for the IC50 in assay [1], in assay [2] and in assay [3] were 1 µM, 10.6 µM and 1.4 µM, respectively. In assay [4], the potency/activity in words result is “restored potency dramatically”.

Consider `CCCCCCCCCCCCCCNC(=O)[C@@H]1CSC(c2ccccc2)N1` (stereo partly drawn) [Compound 321, (4R)-2-phenyl-N-tetradecylthiazolidine-4-carboxamide], for which the IC50 in assay [1] was 0.6 µM; in assay [2], 2.8 µM; in assay [3], 1.9 µM. The selectivity in words result in assay [4] is “loss of selectivity”.

As for `CCCCCCCCCCCCCCCCNC(=O)[C@@H]1CSC(c2ccccc2)N1` (stereo partly drawn) [Compound 322, (4R)—N-hexadecyl-2-phenylthiazolidine-4-carboxamide], the 50% inhibitory concentration (IC50) in assay [1] was 0.7 µM; in assay [2] it was 2.2 µM; in assay [3] it was 1.9 µM. The selectivity in words result in assay [4] is recorded as “loss of selectivity”.

`CCCCCCCCCCCCCCNC(=O)[C@H]1CSC(c2cc(OC)c(OC)c(OC)c2)N1` (stereo partly drawn) [Compound 324, (4S)-2-(3,4,5-trimethoxyphenyl)-N-tetradecylthiazolidine-4-carboxamide]: the values for the IC50 in assay [1], in assay [2] and in assay [3] were 1.1 ± 0.1 µM, 4.1 ± 0.7 µM and 2.6 ± 0.2 µM, respectively.

Turning to `CCCCCCCCCCCCCCCCNC(=O)[C@H]1CSC(c2ccc(NC(C)=O)cc2)N1` (stereo partly drawn) [Compound 325, (4S)-2-(4-acetamidophenyl)-N-hexadecylthiazolidine-4-carboxamide], the IC50 is 1.4 µM in assay [1], 22.6 µM in assay [2] and 3.2 µM in assay [3].

`CCCCCCCCCCCCNC(=O)[C@@H]1CSC(c2ccc(N)cc2)N1` (stereo partly drawn) [Compound 326, (4R)-2-(4-aminophenyl)-N-dodecylthiazolidine-4-carboxamide]: the figures for the IC50 in assay [1], in assay [2] and in assay [3] were 1.4 µM, 4.1 µM and 2.2 µM, respectively.

As to `CCCCCCCCCCCCCCCCNC(=O)[C@@H]1CSC(c2ccc(N)cc2)N1` (stereo partly drawn) [Compound 327, (4R)-2-(4-aminophenyl)-N-hexadecylthiazolidine-4-carboxamide], the IC50 was 1.4 µM in assay [1], 7.4 µM in assay [2] and 2.3 µM in assay [3].

Take `CN(C)/N=N/c1[nH]cnc1C(N)=O` [DTIC, dacarbazine, reference compound]: the IC50 is more than 100 µM in assay [1]; more than 100 µM in assay [4] (summary over the cell lines, read-out: IC50 in the in vitro assay (cell line not given)); more than 100 µM in assay [3].

For the origin of these results see patent US20080255213A1, “THIAZOLIDINONE AMIDES, THIAZOLIDINE CARBOXYLIC ACID AMIDES, AND SERINE AMIDES, INCLUDING POLYAMINE CONJUGATES THEREOF, AS SELECTIVE ANTI-CANCER AGENTS” (University of Tennessee Research Foundation, priority 2007, published 2008).
